Assay results: patent US20240101576A1, “HETEROCYCLIC INHIBITORS OF EGFR AND/OR HER2, FOR USE IN THE TREATMENT OF CANCER” (Scorpion Therapeutics, Inc., priority 2020, published 2024)

Legend:
Type in all cases: cell-based
EGFR WT (Ba/F3 cells) = target: T1, EGFR WT (Ba/F3 cells) (Homo sapiens, UniProt P00533); experiment: Inhibitor activity on EGFR-dependent cell growth (CellTiter-Glo, 72 h), Ba/F3 EGFR WT; conditions: read-out: BaF3 WT IC50
T1 construct: expressed in transfected cells; host or cells: Ba/F3 (murine pro-B cells), retroviral transduction, puromycin selection, maintained with EGF
How it was run: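 This growth assay used Ba/F3 cells that depend on wild-type EGFR and are kept in EGF without IL3. Compounds were made up as 10 mM DMSO stocks and diluted 3-fold over 10 points. 120 nL went onto 600 cells/well. After 72 hours, 40 μL CellTiter-Glo was added and luminescence read on EnVision after 30 min.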

[1] = target: T2, EGFR exon 20 FQEA Ins A763_V764 (Ba/F3 cells) (Homo sapiens, UniProt P00533, INS763FQEA); experiment: Inhibitor activity on EGFR-dependent cell growth (CellTiter-Glo, 72 h), Ba/F3 EGFR exon 20 FQEA Ins; conditions: read-out: BaF3 FQEA IC50
T2 construct: expressed in transfected cells; host or cells: Ba/F3 (murine pro-B cells), retroviral transduction, puromycin selection, IL3-independent pool
How it was run: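 Compounds, serially diluted 3-fold over 10 points in DMSO and added at 120 nL per well, act on Ba/F3 EGFR-mutant cells for 72 h. Seeding is 800 (exon 19del, FQEA), 600 (L858R/C797S) or 400 (L858R) cells/well. CTG luminescence is fitted with a four-parameter logistic curve to give IC50.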

[2] = target: T3, EGFR exon 20 ASV Ins V769_D770 (Ba/F3 cells) (Homo sapiens, UniProt P00533, INS769ASV); experiment: Inhibitor activity on EGFR phosphorylation (pEGFR AlphaLISA, 2 h), Ba/F3 EGFR exon 20 ASV Ins; conditions: EGFR phosphorylation, AlphaLISA, 2 hours; read-out: ASV IC50 (pEGFR)
T3 construct: expressed in transfected cells; host or cells: Ba/F3 (murine pro-B cells), retroviral transduction, puromycin selection, IL3-independent pool
Source text: Example B. Inhibitor Activity on EGFR phosphorylation (pEGFR)
EGFR mutant Ba/F3 cells were generated by transduction with retrovirus containing vectors expressing EGFR L858R, EGFR exon 19del, EGFR L858R/C797S, EGFR exon 20 NPG Ins D770_N771, EGFR exon 20 ASV Ins V769_D770, or EGFR exon 20 SVD Ins D770_N771 genes along with a puromycin selection marker. Transduced cells are selected with puromycin for 7 days and are then be transferred into culture media without Interleukin 3 (IL3). Surviving cells are confirmed to express EGFR by Western blot and maintained as a pool. CUTO14 cells were obtained from Dr. Robert C. Doebele at the University of Colorado. The IC50 date are included in Table 6 and Table 7.
1.1 Cells are harvested from flask into cell culture medium and the cell number counted.
1.2 Cells are diluted with culture medium to the desired density and 40 μL of cell suspension is added into each well of 384-well cell culture plate and the seeding density is 50K cells/well (Ba/F3) or 12.5K cells/well (CUTO14).
2 Compound Preparation and Treatment
2.1 Test compounds are dissolved to 10 mM in a DMSO stock solution. 45 μL of stock solution is transferred to a 384 polypropylene plate (pp-plate). Perform 3-fold, 10-point dilution via transferring 15 μL compound into 30 μL DMSO using a TECAN (EVO200) liquid handler.
2.2 Spin plates at room temperature at 1,000 RPM for 1 minute.
2.3 Transfer 5 nL of diluted compound from compound source plate into the cell plate.
2.4 After compound treatment for 2 hours, perform pEGFR detection by AlphaLISA for compound treatment plates as described in “Detection” section.
3 Detection by pEGFR AlphaLISA (Perkin-Elmer)
3.1 Plates are removed from incubators and equilibrated at room temperature for 10 minutes, and media was removed
3.2 10 μL of lysis buffer is added and plates shaken at 600 rpm for 1 hr.
3.3 Prepare acceptor mix just before use and dispense 5 μL of acceptor mix to all the wells. Shake 350 rpm for Ihr in the dark
3.4 Prepare donor mix under low light conditions prior to use. Dispense 5 μL of donor mix to all the wells. Mix well on the shaker, seal and wrap in aluminum foil and incubate 1.5 hrs at room temperature in the dark
3.5 Transfer 18.5 μL mixture to OptiPlate 384, and read using an Envision. The IC50 date were included in Table 6 and Table 7.

[3] = target: T4, EGFR exon 20 NPG Ins D770_N771 (Ba/F3 cells) (Homo sapiens, UniProt P00533, INS770NPG); experiment: Inhibitor activity on EGFR-dependent cell growth (CellTiter-Glo, 72 h), Ba/F3 EGFR exon 20 NPG Ins; conditions: read-out: BaF3 NPG IC50
T4 construct: expressed in transfected cells; host or cells: Ba/F3 (murine pro-B cells), retroviral transduction, puromycin selection, IL3-independent pool
How it was run: (§1)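 IC50s derive from a sigmoidal dose–response fit of CellTiter-Glo signal. The signal was normalised between […]-treated cells and cell-free medium. Ba/F3 mutant-EGFR cells, seeded at 400–800/well depending on the line, had 72 h of exposure to a 10-point, 3-fold compound series.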

[4] = target: T3, EGFR exon 20 ASV Ins V769_D770 (Ba/F3 cells); experiment: Inhibitor activity on EGFR-dependent cell growth (CellTiter-Glo, 72 h), Ba/F3 EGFR exon 20 ASV Ins; conditions: read-out: BaF3 ASV IC50
How it was run: as §1

[5] = target: T5, EGFR exon 20 SVD Ins D770_N771 (Ba/F3 cells) (Homo sapiens, UniProt P00533, INS770SVD); experiment: Inhibitor activity on EGFR-dependent cell growth (CellTiter-Glo, 72 h), Ba/F3 EGFR exon 20 SVD Ins; conditions: read-out: BaF3 SVD IC50
T5 construct: expressed in transfected cells; host or cells: Ba/F3 (murine pro-B cells), retroviral transduction, puromycin selection, IL3-independent pool
How it was run: as §1

T4 sequence (P00533 with tags, fused parts or gaps INS770NPG): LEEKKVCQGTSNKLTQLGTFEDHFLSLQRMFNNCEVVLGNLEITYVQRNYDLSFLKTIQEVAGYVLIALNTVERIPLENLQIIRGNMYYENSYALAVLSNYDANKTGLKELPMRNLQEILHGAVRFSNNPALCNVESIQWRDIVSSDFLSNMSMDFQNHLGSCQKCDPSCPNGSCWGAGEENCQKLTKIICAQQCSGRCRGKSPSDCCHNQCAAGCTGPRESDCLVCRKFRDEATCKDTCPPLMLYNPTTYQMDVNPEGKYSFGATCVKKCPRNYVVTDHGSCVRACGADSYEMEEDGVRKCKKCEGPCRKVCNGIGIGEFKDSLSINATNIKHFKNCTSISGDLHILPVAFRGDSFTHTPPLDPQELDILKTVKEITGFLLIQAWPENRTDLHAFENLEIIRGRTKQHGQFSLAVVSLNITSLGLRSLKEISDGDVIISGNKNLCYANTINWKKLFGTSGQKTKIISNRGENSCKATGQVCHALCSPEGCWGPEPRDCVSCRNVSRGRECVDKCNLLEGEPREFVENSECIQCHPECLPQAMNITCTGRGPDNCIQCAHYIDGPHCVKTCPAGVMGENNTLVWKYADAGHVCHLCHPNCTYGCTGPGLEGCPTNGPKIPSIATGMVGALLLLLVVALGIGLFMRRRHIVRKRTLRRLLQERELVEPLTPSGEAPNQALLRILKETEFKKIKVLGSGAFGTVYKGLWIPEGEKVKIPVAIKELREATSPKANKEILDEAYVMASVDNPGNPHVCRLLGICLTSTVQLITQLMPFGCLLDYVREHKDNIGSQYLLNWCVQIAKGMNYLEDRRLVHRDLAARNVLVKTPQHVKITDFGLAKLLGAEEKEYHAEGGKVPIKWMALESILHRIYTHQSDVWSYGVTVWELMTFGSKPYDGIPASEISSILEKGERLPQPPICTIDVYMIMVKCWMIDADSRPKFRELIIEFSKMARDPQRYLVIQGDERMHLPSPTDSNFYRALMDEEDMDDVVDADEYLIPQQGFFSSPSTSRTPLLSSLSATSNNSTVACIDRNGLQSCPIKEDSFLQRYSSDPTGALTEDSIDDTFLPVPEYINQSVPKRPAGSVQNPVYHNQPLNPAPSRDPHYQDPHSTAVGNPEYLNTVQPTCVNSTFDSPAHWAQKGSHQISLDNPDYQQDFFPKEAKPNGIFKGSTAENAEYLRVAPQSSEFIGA
T2 sequence (P00533 with tags, fused parts or gaps INS763FQEA): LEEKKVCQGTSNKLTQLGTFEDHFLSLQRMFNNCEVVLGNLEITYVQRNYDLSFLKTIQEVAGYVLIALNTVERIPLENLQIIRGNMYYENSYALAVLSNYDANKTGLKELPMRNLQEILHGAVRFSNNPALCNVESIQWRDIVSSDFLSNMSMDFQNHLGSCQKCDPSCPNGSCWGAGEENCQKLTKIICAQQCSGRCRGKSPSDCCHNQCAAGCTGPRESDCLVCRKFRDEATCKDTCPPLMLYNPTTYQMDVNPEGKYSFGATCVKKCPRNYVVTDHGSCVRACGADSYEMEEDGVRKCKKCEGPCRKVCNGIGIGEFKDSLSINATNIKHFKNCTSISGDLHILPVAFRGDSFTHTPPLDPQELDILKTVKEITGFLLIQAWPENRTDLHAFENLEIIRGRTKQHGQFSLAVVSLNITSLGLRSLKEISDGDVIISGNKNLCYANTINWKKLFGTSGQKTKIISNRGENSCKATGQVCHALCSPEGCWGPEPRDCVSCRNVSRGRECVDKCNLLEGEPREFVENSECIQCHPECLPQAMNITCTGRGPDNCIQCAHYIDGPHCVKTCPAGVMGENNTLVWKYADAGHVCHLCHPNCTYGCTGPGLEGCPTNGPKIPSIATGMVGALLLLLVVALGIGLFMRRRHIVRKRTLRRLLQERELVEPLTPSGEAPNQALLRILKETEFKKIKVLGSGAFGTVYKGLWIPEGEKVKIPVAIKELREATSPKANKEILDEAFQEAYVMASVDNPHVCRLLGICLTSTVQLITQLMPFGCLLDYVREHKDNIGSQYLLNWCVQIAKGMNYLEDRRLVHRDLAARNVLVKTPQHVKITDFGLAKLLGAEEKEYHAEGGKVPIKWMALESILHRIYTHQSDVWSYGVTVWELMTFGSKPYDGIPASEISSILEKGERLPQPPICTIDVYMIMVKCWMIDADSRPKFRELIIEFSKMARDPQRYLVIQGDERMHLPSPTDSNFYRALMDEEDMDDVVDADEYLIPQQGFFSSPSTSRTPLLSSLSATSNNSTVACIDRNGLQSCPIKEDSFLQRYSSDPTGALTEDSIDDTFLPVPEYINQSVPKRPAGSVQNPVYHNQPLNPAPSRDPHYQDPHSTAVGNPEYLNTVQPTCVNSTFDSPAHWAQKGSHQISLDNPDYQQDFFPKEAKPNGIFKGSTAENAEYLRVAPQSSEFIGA
T5 sequence (P00533 with tags, fused parts or gaps INS770SVD): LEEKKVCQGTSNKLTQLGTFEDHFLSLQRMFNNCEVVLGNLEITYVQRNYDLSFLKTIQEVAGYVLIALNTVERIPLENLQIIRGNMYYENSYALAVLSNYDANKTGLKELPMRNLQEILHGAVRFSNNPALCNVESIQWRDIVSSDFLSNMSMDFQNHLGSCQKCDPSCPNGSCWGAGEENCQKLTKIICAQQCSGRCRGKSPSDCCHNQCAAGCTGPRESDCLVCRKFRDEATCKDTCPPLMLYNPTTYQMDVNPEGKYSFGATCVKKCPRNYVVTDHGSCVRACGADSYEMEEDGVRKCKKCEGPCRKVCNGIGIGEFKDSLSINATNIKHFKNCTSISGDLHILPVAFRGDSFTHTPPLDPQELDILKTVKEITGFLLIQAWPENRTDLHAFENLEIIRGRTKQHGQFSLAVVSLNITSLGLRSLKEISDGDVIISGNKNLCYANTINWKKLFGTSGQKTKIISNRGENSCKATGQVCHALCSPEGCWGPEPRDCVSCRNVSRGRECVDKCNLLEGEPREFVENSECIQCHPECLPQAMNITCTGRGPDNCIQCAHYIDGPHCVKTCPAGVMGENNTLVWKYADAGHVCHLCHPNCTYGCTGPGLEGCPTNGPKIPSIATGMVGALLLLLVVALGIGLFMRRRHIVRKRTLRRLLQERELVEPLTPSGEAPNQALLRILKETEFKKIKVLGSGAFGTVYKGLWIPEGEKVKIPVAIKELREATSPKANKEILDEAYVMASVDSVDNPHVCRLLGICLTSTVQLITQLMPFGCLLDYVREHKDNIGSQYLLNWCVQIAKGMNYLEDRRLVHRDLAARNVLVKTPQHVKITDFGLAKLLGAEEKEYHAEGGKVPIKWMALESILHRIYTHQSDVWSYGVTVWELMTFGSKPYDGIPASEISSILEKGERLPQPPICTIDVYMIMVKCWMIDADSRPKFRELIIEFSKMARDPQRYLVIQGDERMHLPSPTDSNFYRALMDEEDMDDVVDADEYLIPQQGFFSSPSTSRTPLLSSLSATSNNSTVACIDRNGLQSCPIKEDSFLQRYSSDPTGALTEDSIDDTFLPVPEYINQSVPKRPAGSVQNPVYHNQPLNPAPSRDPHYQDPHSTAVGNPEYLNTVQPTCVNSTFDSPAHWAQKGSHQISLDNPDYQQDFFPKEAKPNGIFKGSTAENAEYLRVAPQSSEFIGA
T1 sequence (P00533 25-1210): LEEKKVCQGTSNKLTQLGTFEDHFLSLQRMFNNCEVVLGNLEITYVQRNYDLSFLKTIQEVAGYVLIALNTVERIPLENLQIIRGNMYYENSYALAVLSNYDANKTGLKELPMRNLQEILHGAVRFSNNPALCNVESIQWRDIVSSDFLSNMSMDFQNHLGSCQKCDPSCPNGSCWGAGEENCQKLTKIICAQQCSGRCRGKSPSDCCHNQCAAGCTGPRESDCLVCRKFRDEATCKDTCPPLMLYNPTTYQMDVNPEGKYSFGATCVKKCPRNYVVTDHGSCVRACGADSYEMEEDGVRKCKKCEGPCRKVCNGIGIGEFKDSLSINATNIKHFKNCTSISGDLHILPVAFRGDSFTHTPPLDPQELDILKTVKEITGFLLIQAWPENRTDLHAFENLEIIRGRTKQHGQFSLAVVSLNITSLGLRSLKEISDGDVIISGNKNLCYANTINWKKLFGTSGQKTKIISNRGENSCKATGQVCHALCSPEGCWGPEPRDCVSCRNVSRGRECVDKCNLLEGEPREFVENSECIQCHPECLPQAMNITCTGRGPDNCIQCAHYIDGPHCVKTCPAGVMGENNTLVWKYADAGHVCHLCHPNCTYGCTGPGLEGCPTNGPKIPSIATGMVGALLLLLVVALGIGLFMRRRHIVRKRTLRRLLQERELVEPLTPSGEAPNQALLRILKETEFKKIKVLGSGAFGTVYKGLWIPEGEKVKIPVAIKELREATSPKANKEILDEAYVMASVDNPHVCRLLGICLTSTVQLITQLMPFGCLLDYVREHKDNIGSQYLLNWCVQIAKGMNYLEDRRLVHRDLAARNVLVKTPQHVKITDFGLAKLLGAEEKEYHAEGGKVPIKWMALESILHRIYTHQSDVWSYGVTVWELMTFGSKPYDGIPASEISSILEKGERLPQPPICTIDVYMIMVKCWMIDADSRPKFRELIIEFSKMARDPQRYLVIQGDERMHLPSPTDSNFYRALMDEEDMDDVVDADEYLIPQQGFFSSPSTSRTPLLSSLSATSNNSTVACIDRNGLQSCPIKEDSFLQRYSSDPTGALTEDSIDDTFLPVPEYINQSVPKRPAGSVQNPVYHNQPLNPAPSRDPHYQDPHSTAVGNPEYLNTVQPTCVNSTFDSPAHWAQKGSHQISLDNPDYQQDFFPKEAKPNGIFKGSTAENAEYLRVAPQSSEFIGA

| IC50 (EGFR WT (Ba/F3 cells)) | IC50 [1] | IC50 [2] | IC50 [3] | IC50 [4] | IC50 [5] | SMILES |
| --- | --- | --- | --- | --- | --- | --- |
| > 1000 nM | > 1000 nM | 100 to 1000 nM | – | – | – | CCOc1c(Cl)cccc1Nc1c(-c2ccnc(N)n2)[nH]c2c1C(=O)NCC2 [Compound 700, 2-(2-aminopyrimidin-4-yl)-3-[(3-chloro-2-ethoxyphenyl)amino]-1H,5H,6H,7H-pyrrolo[3,2-c]pyridin-4-one; trifluoroacetic acid] |
| > 1000 nM | 100 to 1000 nM | < 100 nM | – | – | – | COc1c(C)cccc1Nc1c(-c2ccnc(N)n2)[nH]c2c1C(=O)NCC2 [compound 305] |
| 100 to 1000 nM | < 100 nM | – | < 100 nM | < 100 nM | < 100 nM | COc1c(Cl)cccc1Nc1c(-c2ccnc3ccc(OC[C@H]4CCO4)nc23)[nH]c2c1C(=O)NCC2 [compound 734, 3-[(3-chloro-2-methoxyphenyl)amino]-2-[6-[(2R)-oxetan-2-ylmethoxy]-1,5-naphthyridin-4-yl]-1H,5H,6H,7H-pyrrolo[3,2-c]pyridin-4-one] |
| < 100 nM | < 100 nM | – | < 100 nM | < 100 nM | < 100 nM | CCOc1ccc2nccc(-c3[nH]c4c(c3Nc3cccc(Cl)c3OC)C(=O)NCC4)c2n1 [compound 761, 3-[(3-chloro-2-methoxyphenyl)amino]-2-(6-ethoxy-1,5-naphthyridin-4-yl)-1H,5H,6H,7H-pyrrolo[3,2-c]pyridin-4-one] |
| > 1000 nM | > 1000 nM | – | 100 to 1000 nM | > 1000 nM | > 1000 nM | COc1c(Cl)cccc1Nc1c(-c2ccncc2F)[nH]c2c1C(=O)NC[C@@H]2CC1COC1 [468a] |
| 100 to 1000 nM | 100 to 1000 nM | – | < 100 nM | < 100 nM | < 100 nM | COc1c(Cl)cccc1Nc1c(-c2ccnc3ccc(O[C@H]4CCOC4)nc23)[nH]c2c1C(=O)NCC2 [compound 739, 3-[(3-chloro-2-methoxyphenyl)amino]-2-[6-[(3S)-oxolan-3-yloxy]-1,5-naphthyridin-4-yl]-1H,5H,6H,7H-pyrrolo[3,2-c]pyridin-4-one] |
| > 1000 nM | > 1000 nM | – | 100 to 1000 nM | 100 to 1000 nM | 100 to 1000 nM | COc1c(Nc2c(-c3ccnc(N)n3)[nH]c3c2C(=O)NCC3)ccc(F)c1Cl [compound 713, 2-(2-aminopyrimidin-4-yl)-3-[(3-chloro-4-fluoro-2-methoxyphenyl)amino]-1H,5H,6H,7H-pyrrolo[3,2-c]pyridin-4-one] |
| > 1000 nM | > 1000 nM | – | > 1000 nM | > 1000 nM | > 1000 nM | COc1c(F)cccc1Nc1c(-c2ccncc2F)[nH]c2c1C(=O)NC[C@H]2CC1COC1 [469a] |
| 100 to 1000 nM | < 100 nM | – | < 100 nM | < 100 nM | < 100 nM | COCC[C@H]1CNC(=O)c2c1[nH]c(-c1ccnc(N)n1)c2Nc1cccc(Cl)c1OC [Compound 727, (7S)-2-(2-aminopyrimidin-4-yl)-3-[(3-chloro-2-methoxyphenyl)amino]-7-(2-methoxyethyl)-1H,5H,6H,7H-pyrrolo[3,2-c]pyridin-4-one] |
| > 1000 nM | 100 to 1000 nM | – | 100 to 1000 nM | 100 to 1000 nM | 100 to 1000 nM | COCC[C@H]1CNC(=O)c2c1[nH]c(-c1ccncc1F)c2Nc1cccc(F)c1OC [421a] |
| 100 to 1000 nM | < 100 nM | – | < 100 nM | < 100 nM | < 100 nM | COc1c(Cl)cccc1Nc1c(-c2ccnc3ccc(OCC4COC4)nc23)[nH]c2c1C(=O)NCC2 [compound 737, 3-[(3-chloro-2-methoxyphenyl)amino]-2-[6-(oxetan-3-ylmethoxy)-1,5-naphthyridin-4-yl]-1H,5H,6H,7H-pyrrolo[3,2-c] pyridin-4-one] |
| > 1000 nM | 100 to 1000 nM | – | < 100 nM | 100 to 1000 nM | 100 to 1000 nM | COc1c(Cl)cc(F)cc1Nc1c(-c2ccnc(N)n2)[nH]c2c1C(=O)NCC2 [Compound 714, 2-(2-aminopyrimidin-4-yl)-3-[(3-chloro-5-fluoro-2-methoxyphenyl)amino]-1H,5H,6H,7H-pyrrolo[3,2-c]pyridin-4-one; trifluoroacetic acid] |
| > 1000 nM | 100 to 1000 nM | – | 100 to 1000 nM | 100 to 1000 nM | 100 to 1000 nM | COc1c(F)cccc1Nc1c(-c2ccncc2F)[nH]c2c1C(=O)NC[C@@H]2C[C@H]1CCO1 [Compound 422c, (7S)-3-[(3-fluoro-2-methoxyphenyl)amino]-2-(3-fluoropyridin-4-yl)-7-[(2S)-oxetan-2-ylmethyl]-1H,5H,6H,7H-pyrrolo[3,2-c]pyridin-4-one] |
| > 1000 nM | 100 to 1000 nM | – | 100 to 1000 nM | 100 to 1000 nM | 100 to 1000 nM | CSc1c(F)cccc1Nc1c(-c2ccnc(N)n2)[nH]c2c1C(=O)NCC2 [Compound 716, 2-(2-aminopyrimidin-4-yl)-3-[[3-fluoro-2-(methylsulfanyl)phenyl]amino]-1H,5H,6H,7H-pyrrolo[3,2-c]pyridin-4-one; trifluoroacetic acid] |
| < 100 nM | < 100 nM | – | < 100 nM | < 100 nM | < 100 nM | COc1c(Cl)cccc1Nc1c(-c2ccnc3ccc(O[C@H]4CCCOC4)nc23)[nH]c2c1C(=O)NCC2 [compound 741, 3-[(3-chloro-2-methoxyphenyl)amino]-2-[6-[(3S)-oxan-3-yloxy]-1,5-naphthyridin-4-yl]-1H,5H,6H,7H-pyrrolo[3,2-c]pyridin-4-one; formic acid] |
| 100 to 1000 nM | < 100 nM | – | < 100 nM | < 100 nM | < 100 nM | COc1c(Cl)cccc1Nc1c(-c2ccnc3ccc(O[C@@H]4CCOC4)nc23)[nH]c2c1C(=O)NCC2 [compound 743, 3-[(3-chloro-2-methoxyphenyl)amino]-2-[6-[(3R)-oxolan-3-yloxy]-1,5-naphthyridin-4-yl]-1H,5H,6H,7H-pyrrolo[3,2-c]pyridin-4-one] |
| 100 to 1000 nM | 100 to 1000 nM | – | 100 to 1000 nM | < 100 nM | < 100 nM | COc1c(Cl)cccc1Nc1c(-c2ccnc3ccc(OCC(F)(F)F)nc23)[nH]c2c1C(=O)NCC2 [compound 763, 3-[(3-chloro-2-methoxyphenyl)amino]-2-[6-(2,2,2-trifluoroethoxy)-1,5-naphthyridin-4-yl]-1H,5H,6H,7H-pyrrolo[3,2-c]pyridin-4-one] |
| 100 to 1000 nM | 100 to 1000 nM | – | < 100 nM | < 100 nM | < 100 nM | COc1c(F)cccc1Nc1c(-c2ccncc2F)[nH]c2c1C(=O)NC[C@H]2C[C@H]1CCO1 [Compound 422d, (7R)-3-[(3-fluoro-2-methoxyphenyl)amino]-2-(3-fluoropyridin-4-yl)-7-[(2S)-oxetan-2-ylmethyl]-1H,5H,6H,7H-pyrrolo[3,2-c]pyridin-4-one] |
